# Experimental data published in EPA's ToxRefDB 2.
# Assays:
# [1] = tested on: mouse; conditions: Subchronic oral toxicity in rodents, other, Feed, dose end: 90 day, group: systemic
# [2] = tested on: dog; conditions: Subchronic oral toxicity in nonrodent, beagle, Feed, dose end: 90 day, group: systemic
# [3] = tested on: dog; conditions: Chronic toxicity, beagle, Oral, Feed, dose end: 52 week, group: systemic
# [4] = tested on: mouse; conditions: Combined chronic toxicity/carcinogenicity; Oral; Feed; dose end: 104 week; group: systemic; systemic / in life observation / water consumption / water consumption + systemic / pathology gross / full gross necropsy / abdominal cavity…
# [5] = tested on: rat; conditions: Subchronic oral toxicity in rodents, sprague dawley, Feed, dose end: 90 day, group: systemic
# [6] = tested on: rat; conditions: Subchronic dermal toxicity, sprague dawley, Topical, dose end: 13 week, group: systemic
# [7] = tested on: rat; conditions: Subchronic oral toxicity in rodents, sprague dawley, Gavage/Intubation, dose end: 13 week, group: systemic
# [8] = tested on: rat; conditions: Multigenerational reproductive toxicity study, Charles River CD, Oral, Feed, dose end: 2 generation
# [9] = tested on: mouse; conditions: Carcinogenicity; cd1; Oral; Feed; dose end: 78 week; group: systemic; systemic / organ weight / liver / nos + systemic / organ weight / liver / relative to body weight + systemic / pathology microscopic / liver…
# [10] = tested on: rat; conditions: Subchronic oral toxicity in rodents, sprague dawley, Feed, dose end: 13 week, group: systemic
# [11] = tested on: rat; conditions: Combined chronic toxicity/carcinogenicity; sprague dawley; Oral; Feed; dose end: 104 week; group: systemic; systemic / clinical chemistry / alanine aminotransferase (alt/sgpt) / alanine aminotransferase (alt/sgpt) + systemic / clinical chemistry / …
# [12] = tested on: mouse; conditions: Subchronic oral toxicity in rodents, cd1, Feed, dose end: 13 week, group: systemic
# [13] = tested on: rat; conditions: Prenatal developmental toxicity study, sprague dawley, Oral, Gavage/Intubation, dose end: 19 GD
# [14] = tested on: dog; conditions: Chronic toxicity, beagle, Oral, Feed, dose end: 52 week, group: systemic; remark: listed apart in the source
# [15] = tested on: rat; conditions: Subchronic oral toxicity in rodents, other, Gavage/Intubation, dose end: 90 day, group: systemic, systemic / hematology / erythrocyte (rbc) count differential / erythrocyte (rbc) + systemic / hematology / hematocrit (hct) / hematocrit (…
# [16] = systemic / pathology microscopic / liver / hypertrophy
# [17] = systemic / clinical chemistry / alanine aminotransferase (alt/sgpt) / alanine aminotransferase (alt/sgpt) + systemic / clinical chemistry / …
# [18] = systemic / organ weight / ovary / absolute + systemic / organ weight / ovary / relative to body weight
# [19] = systemic / clinical chemistry / cholesterol / cholesterol + systemic / organ weight / kidney / absolute + systemic / organ weight / kidney…
# [20] = systemic / organ weight / liver / absolute + systemic / organ weight / liver / relative to body weight + systemic / pathology microscopic / …
# [21] = systemic / in life observation / clinical signs / erythema + systemic / in life observation / clinical signs / body surface staining + …
# [22] = systemic / in life observation / clinical signs / erythema + systemic / pathology microscopic / skin / hyperplasia + systemic / pathology …
# [23] = systemic / pathology microscopic / stomach / infiltration cellular + systemic / pathology gross / stomach / discolored + systemic / …
# [24] = systemic / pathology microscopic / stomach / infiltration cellular + systemic / pathology gross / stomach / prominent limiting ridge + …
# [25] = group: offspring, systemic / in life observation / body weight / offspring (pup) weight + systemic / organ weight / liver / absolute + systemic / organ weight…
# [26] = group: parental, systemic / organ weight / spleen / relative to body weight
# [27] = group: reproductive, reproductive / reproductive performance / fertility / fertility
# [28] = group: reproductive, reproductive / reproductive performance / fertility / fertility + reproductive / offspring survival early / birth index / live birth index
# [29] = systemic / hematology / erythrocyte (rbc) count differential / erythrocyte (rbc)
# [30] = systemic / pathology microscopic / liver / [other] + systemic / pathology microscopic / liver / hematopoietic cell proliferation + systemic…
# [31] = group: developmental, developmental / developmental malformation / bone / bent + developmental / developmental malformation / bone / incomplete ossification + …
# [32] = group: maternal, systemic / in life observation / body weight / body weight gain + systemic / in life observation / clinical signs / lethargy + systemic / in…
# [33] = systemic / organ weight / adrenal gland / absolute + systemic / organ weight / heart / absolute + systemic / organ weight / spleen / …
smiles,measurement,setting,value
COC(=O)c1ccccc1CS(=O)(=O)NC(=O)Nc1nc(OC)cc(OC)n1 [Bensulfuron-methyl],LEL,[1]; [16],38.9 mg/kg/day
same,LOAEL,[1]; [16],387 mg/kg/day
same,NEL,[1]; [16],< 38.9 mg/kg/day
same,NOAEL,[1]; systemic / pathology microscopic / liver / hypertrophy + systemic / organ weight / liver / absolute + systemic / organ weight / liver / …,132 mg/kg/day
same,LOAEL,[2]; [17],340 mg/kg/day
same,NOAEL,[2]; [17],32.1 mg/kg/day
same,LEL,[2]; [18],3.5 mg/kg/day
same,NEL,[2]; [18],< 3.5 mg/kg/day
same,LOAEL,[3]; [17],223 mg/kg/day
same,NEL,[3]; [17],1.4 mg/kg/day
same,NOAEL,[3]; [17],19.9 mg/kg/day
same,LEL,[3]; systemic / organ weight / spleen / absolute + systemic / organ weight / spleen / relative to body weight,19.9 mg/kg/day
same,LEL,[4],455 mg/kg/day
same,LOAEL,[4],455 mg/kg/day
same,NEL,[4],226 mg/kg/day
same,NOAEL,[4],226 mg/kg/day
same,LOAEL,[5]; [19],474 mg/kg/day
same,NOAEL,[5]; [19],93 mg/kg/day
same,LEL,[5]; [20],7.5 mg/kg/day
same,NEL,[5]; [20],< 7.5 mg/kg/day
"OCCN1CN(CCO)CN(CCO)C1 [1,3,5-Triazine-1,3,5(2H,4H,6H)-triethanol]",LEL,[6]; [21],5 mg/kg/day
same,NEL,[6]; [21],< 5 mg/kg/day
same,LOAEL,[6]; [22],50 mg/kg/day
same,NOAEL,[6]; [22],5 mg/kg/day
same,NEL,[7]; [23],50 mg/kg/day
same,NOAEL,[7]; [23],50 mg/kg/day
same,LEL,[7]; [24],100 mg/kg/day
same,LOAEL,[7]; [24],100 mg/kg/day
CCOC(=O)C(C)OC(=O)c1cc(Oc2ccc(C(F)(F)F)cc2Cl)ccc1[N+](=O)[O-] (configuration not stated) [Lactofen],LEL,[8]; [25],26.7 mg/kg/day
same,LOAEL,[8]; [25],26.7 mg/kg/day
same,NEL,[8]; [25],2.7 mg/kg/day
same,NOAEL,[8]; [25],2.7 mg/kg/day
same,LOAEL,"[8]; group: parental, systemic / in life observation / mortality / mortality",32.9 mg/kg/day
same,NOAEL,"[8]; group: parental, systemic / in life observation / mortality / mortality + systemic / in life observation / body weight / body weight + systemic / organ …",3.3 mg/kg/day
same,LEL,[8]; [26],3.3 mg/kg/day
same,NEL,[8]; [26],< 3.3 mg/kg/day
same,LEL,[8]; [27],26.7 mg/kg/day
same,LOAEL,[8]; [27],26.7 mg/kg/day
same,NEL,[8]; [28],2.7 mg/kg/day
same,NOAEL,[8]; [28],2.7 mg/kg/day
same,LEL,[9],1.4 mg/kg/day
same,LOAEL,[9],1.4 mg/kg/day
same,NEL,[9],< 1.4 mg/kg/day
same,NOAEL,[9],< 1.4 mg/kg/day
same,LOAEL,[10]; [17],73.7 mg/kg/day
same,NOAEL,[10]; [17],14.1 mg/kg/day
same,LEL,[10]; [29],2.9 mg/kg/day
same,NEL,[10]; [29],< 2.9 mg/kg/day
same,LEL,[11],19 mg/kg/day
same,LOAEL,[11],19 mg/kg/day
same,NEL,[11],2 mg/kg/day
same,NOAEL,[11],2 mg/kg/day
same,LOAEL,[12]; [17],143 mg/kg/day
same,NOAEL,[12]; [17],28.6 mg/kg/day
same,LEL,[12]; [30],5.7 mg/kg/day
same,NEL,[12]; [30],< 5.7 mg/kg/day
same,LEL,[13]; [31],150 mg/kg/day
same,LOAEL,[13]; [31],150 mg/kg/day
same,NEL,[13]; [31],50 mg/kg/day
same,NOAEL,[13]; [31],50 mg/kg/day
same,LEL,[13]; [32],150 mg/kg/day
same,LOAEL,[13]; [32],150 mg/kg/day
same,NEL,[13]; [32],50 mg/kg/day
same,NOAEL,[13]; [32],50 mg/kg/day
same,LEL,[14]; [33],0.79 mg/kg/day
same,NEL,[14]; [33],< 0.79 mg/kg/day
same,NOAEL,[14]; [33],0.79 mg/kg/day
same,LOAEL,[14]; systemic / organ weight / adrenal gland / absolute + systemic / organ weight / thyroid gland / absolute,3.96 mg/kg/day
[Na+].[O-][Cl+2]([O-])[O-] [Sodium chlorate],LEL,[15],1000 mg/kg/day
same,LOAEL,[15],1000 mg/kg/day
same,NEL,[15],100 mg/kg/day
same,NOAEL,[15],100 mg/kg/day
